Experimental data: patent US20250073209A1, “COVALENT TARGETING OF RhoA FOR CANCER THERAPY” (The University of Hong Kong, priority 2023, published 2025)

How the values were obtained:
Rac1 = Rac1 (Homo sapiens, UniProt P63000); test: Rac1-GTP PAK-PBD pull-down in HT29 cells; format: cell-based; design: endogenous in cells; host or cells: HT29; details: HT29, complete medium 24 h
Source text: The procedure is similar to that for RhoA-GTP assay, except that Rac1-GTP and Cdc42-GTP in CRC cells were first enriched by Rac1 Pull-Down Activation Assay Biochem Kit (Cytoskeleton #BK035) instead of using the RhoA kit. The enriched Rac1-GTP and Cdc42-GTP were then immunoblotted by Rac1/2/3 antibody (CST #2465) and Cdc42 antibody (CST #2462) respectively.
(§1) GTP loading onto RhoA is critical for the protein activation and mediating downstream signals. In view of the inhibitions of GDP-to-GTP exchange of RhoA by CL16 in vitro as discussed above, effects of CL16 on RhoA biology in colorectal cancer cells were examined. In the serum starvation-re-stimulation experiment, HCT116 cells were grown in serum-free medium with CL16, Rhosin or solvent control for 24 h, followed by stimulation with 10% FBS for 10 min. The cells were then lysed and the RhoA activity was assayed by the level of RhoA-GTP, which is the active form of RhoA. […] HT29 cells were incubated with solvent vehicle, CL16 or Rhosin in complete medium for 24 h. The cells were then washed, lysed and subjected to rhotekin pull-down for blotting RhoA-GTP, or PAK-PBD pull-down for blotting Rac1-GTP and Cdc42-GTP. Confocal fluorescence images from HCT116 and HT29 cells expressing FRET RhoA-biosensor in the serum starvation-restimulation experiment were taken.

RhoA [1] = test: FRET-RhoA biosensor imaging, serum re-stimulation; format: cell-based, human; details: transfected cells, serum-free 24 h, 10% FBS 10 min
Protocol: To further validate the inhibitory effects of CL16 on RhoA, HCT116 and HT29 cells were transfected with a FRET-RhoA biosensor, where cells with elevated RhoA activity would show a higher FRET/mTFP1. Specifically, HCT116 cells transfected with FRET-RhoA biosensor were treated with CL16 or solvent in serum-free medium for 24 h, washed with PBS, re-stimulated with 10% FBS for 10 min, washed, and then imaged in HBSS by confocal fluorescence microscopy. […] In addition, HCT116 cells were serum-starved and treated with CL16 or Rhosin for 24 h, followed by 10% FBS re-stimulation for 10 min. The cells were then washed and fixed by 4% paraformaldehyde, washed with PBS and stained with Alexa Fluor 488-Phalloidin in PBS (1:20, v/v) at room temperature for 15 min. The cells were washed with PBS, incubated with Hoechst (8.2 μM) in PBS for 15 min, washed and then imaged in PBS by confocal fluorescence microscopy. […] Since RhoA regulates cytoskeletal dynamics and RhoA activation can induce the formation of contractile F-actin, the reduction of F-actin fibers by CL16 treatment supports its inhibitory roles on RhoA signaling.

HT29 spheroid = test: Spheroid formation assay, HT29; format: cell-based, human
Protocol: FIGS. 5A-5B are graphs showing the anticancer effects of CL16 in HT29 (FIG. 5A) and SW620 (FIG. 5B) spheroids. HT29 spheroid or SW620 spheroid were treated with CL16 at the indicated concentrations for 10 days. The spheroids were then imaged by microscope using 10× objective and the size was determined by ImageJ.
5,000 cells of HT29 and SW620 cells were inoculated in serum-free DMEM/F12 medium with 20 ng/mL […] growth factor (EGF) in 96-well round-bottom low-affinity plate (Nunc). Medium was supplemented with CL16 or Rhosin when spheroid has formed an opaque core. Morphology was recorded under a light microscope with 10× objective.
To further investigate the anticancer effects of CL16, HT29 and SW620 cells were inoculated as spheroids in low-affinity plate with 20 ng/mL EGF, and incubated with different concentrations of CL16 or Rhosin.

RhoA-GEF interactions = molecular target: T1, RhoA-GEF interactions (Homo sapiens, UniProt P61586); test: Co-immunoprecipitation of GST-RhoA with GEF-containing cell lysates; format: biochemical; details: GST-RhoA with HEK293T cell lysates
T1 construct: host or cells: GEFs overexpressed in HEK293T lysates
Protocol: 10 μg of purified GST-RhoA was immobilized on Glutathione resin (Pierce) and incubated with CL16 in GTP-exchange buffer (20 mM HEPES, 150 mM NaCl, 5 mM MgCl2, pH 7.4) for 1 hour. Then, the mixture was centrifuged at 700g for 2 min and supernatant was discarded. 120 μg of total cell lysate with overexpression of GEF (Arhgefl p-115, Arhgefl2 LARG DH-PH domain, Arhgef13 Akap Lbc) was added to the resin. The mixture was put on an end-to-end rotator and incubated at 4° C. for 4 hours. The resin was then washed, eluted and subjected to immunoblotting.

SL4 cells = test: MTT assay on mouse CRC cells SL4; format: cell-based; details: complete medium 48 h
Protocol: FIG. 13A is a graph showing the cell viability, which was examined by MTT assay. SL4 cells were treated with solvent vehicle or CL16 in complete medium for 48 h.
Antitumor effects of CL16 in an immunocompetent, orthotopic mouse CRC model, which was established by the inoculation of mouse CRC cells, SL4, intracecally were examined (FIG. 20). […] Immunohistochemistry staining of CD3, CD4, CD8, Ki67 was conducted, with cleaved caspase-3 and VEGFR2 on tumor tissues from the vehicle- or CL16-treated mice.

RhoA [2] = molecular target: RhoA (Homo sapiens, UniProt P61586); test: RhoA-GTP rhotekin pull-down, serum starvation-re-stimulation; format: cell-based; design: endogenous in cells; host or cells: HCT116, HT29
Protocol: RhoA Pull-Down Activation Assay Biochem Kit (#BK036) was purchased from Cytoskeleton. According to the manufacturer's protocol, total cell lysate (0.5 mg/mL; 300 μL) was added to 7.5 μL of Rhotekin-Rho Binding Domain beads in 0.6 mL tubes. The solution mixture was incubated at 4° C. on an end-to-end rotator for 1 hour. Beads were washed with 500 μL of washing buffer once, then centrifuged at 5000g for 3 min and the supernatant was discarded. RhoA-GTP was then eluted in 2× laemmli buffer and resolved in 10% SDS-PAGE.
as §1, with “The cells were then washed, lysed and subjected to rhotekin pull-down for blotting RhoA-GTP, or PAK-PBD pull-down for blotting Rac1-GTP and Cdc42-GTP.” left out

Sequence of RhoA (Homo sapiens, UniProt P61586) (P61586 whole entry, the tested form may be a part): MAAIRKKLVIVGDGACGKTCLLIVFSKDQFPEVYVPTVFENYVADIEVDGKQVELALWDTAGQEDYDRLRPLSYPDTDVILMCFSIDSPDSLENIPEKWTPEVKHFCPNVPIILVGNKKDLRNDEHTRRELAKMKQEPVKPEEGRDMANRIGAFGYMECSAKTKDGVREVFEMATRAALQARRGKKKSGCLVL
T1 sequence (P61586 whole entry): as the sequence (P61586 whole entry, the tested form may be a part) above

- Rac1 activity (Rac1-GTP) (Rac1): no significant changes
- RhoA interactions with ARHGEF1, LARG DH-PH domain, AKAP13 and ARHGAP4s (RhoA-GEF interactions): disruption of RhoA interactions
- RhoA-GTP level compared with Rhosin (RhoA [2]; 10 μM CL16 vs 30 μM Rhosin): lower RhoA-GTP level
- cellular RhoA-GTP level after serum stimulation vs solvent control (RhoA [2]; HCT116, serum-free 24 h, 10% FBS 10 min): much lower cellular RhoA-GTP levels
Compound: O=C(CCl)N1N=C(c2cc3ccccc3o2)CC1c1ccco1 (centres unmarked) [CL16]
- FRET/mTFP1 upon serum re-stimulation (RhoA [1]): abolishment of the increase in FRET/mTFP1
- growth of HT29 spheroids (HT29 spheroid; 20 ng/mL EGF, low-affinity plate): significant inhibitions in the growth
- IC50 (HT29 spheroid; Homo sapiens, HT-29, 240 h, 10 days, read-out: cytotoxic IC50 in HT29 spheroids): 5.57 µM
- viability of SL4 (SL4 cells): significantly decreased the viability
